Laboratory results from publication PMC4770715, “LIM kinase inhibitors disrupt mitotic microtubule organization and impair tumor cell proliferation” (Oncotarget, 2015).

Tests used:
Experiment in all cases: biochemical
Parameters in all cases: KINOMEscan active-site competition binding, percent of control (100 = no competition)
Settings in all cases: competition binding, percent control
[1] = biological target: LATS1 (Homo sapiens, UniProt O95835)
[2] = biological target: T1, ABL1(Q252H)-phosphorylated (Homo sapiens, UniProt P00519, Q252H)
T1 construct: phosphorylated

[3] = biological target: TAOK2 (Homo sapiens, UniProt Q9UL54)
[4] = biological target: PIK3CA(E542K) (Homo sapiens, UniProt P42336, E542K)
[5] = biological target: CDK7 (Homo sapiens, UniProt P50613)
[6] = biological target: CSNK1D (Homo sapiens, UniProt P48730)
[7] = biological target: PIK3CB (Homo sapiens, UniProt P42338)
[8] = biological target: INSRR (Homo sapiens, UniProt P14616)
[9] = biological target: ERBB3 (Homo sapiens, UniProt P21860)
[10] = biological target: T2, MRCKA (Homo sapiens, UniProt Q5VT25)
T2 construct: gene CDC42BPA

[11] = biological target: BRAF(V600E) (Homo sapiens, UniProt P15056, V600E)
[12] = biological target: T3, SNARK (Homo sapiens, UniProt Q9H093)
T3 construct: gene NUAK2

[13] = biological target: DDR2 (Homo sapiens, UniProt Q16832)
[14] = biological target: TEC (Homo sapiens, UniProt P42680)
[15] = biological target: PLK4 (Homo sapiens, UniProt O00444)
[16] = biological target: TAOK3 (Homo sapiens, UniProt Q9H2K8)
[17] = biological target: T4, PRP4 (Homo sapiens, UniProt Q13523)
T4 construct: gene PRPF4B

[18] = biological target: DMPK (Homo sapiens, UniProt Q09013)
[19] = biological target: T5, MLK1 (Homo sapiens, UniProt P80192)
T5 construct: gene MAP3K9

[20] = biological target: T6, ERK2 (Homo sapiens, UniProt P28482)
T6 construct: gene MAPK1

[21] = biological target: PIK3CA(I800L) (Homo sapiens, UniProt P42336, I800L)
[22] = biological target: KIT(V559D,V654A) (Homo sapiens, UniProt P10721, V559D/V654A)
[23] = biological target: DYRK2 (Homo sapiens, UniProt Q92630)

T4 sequence (Q13523 whole entry): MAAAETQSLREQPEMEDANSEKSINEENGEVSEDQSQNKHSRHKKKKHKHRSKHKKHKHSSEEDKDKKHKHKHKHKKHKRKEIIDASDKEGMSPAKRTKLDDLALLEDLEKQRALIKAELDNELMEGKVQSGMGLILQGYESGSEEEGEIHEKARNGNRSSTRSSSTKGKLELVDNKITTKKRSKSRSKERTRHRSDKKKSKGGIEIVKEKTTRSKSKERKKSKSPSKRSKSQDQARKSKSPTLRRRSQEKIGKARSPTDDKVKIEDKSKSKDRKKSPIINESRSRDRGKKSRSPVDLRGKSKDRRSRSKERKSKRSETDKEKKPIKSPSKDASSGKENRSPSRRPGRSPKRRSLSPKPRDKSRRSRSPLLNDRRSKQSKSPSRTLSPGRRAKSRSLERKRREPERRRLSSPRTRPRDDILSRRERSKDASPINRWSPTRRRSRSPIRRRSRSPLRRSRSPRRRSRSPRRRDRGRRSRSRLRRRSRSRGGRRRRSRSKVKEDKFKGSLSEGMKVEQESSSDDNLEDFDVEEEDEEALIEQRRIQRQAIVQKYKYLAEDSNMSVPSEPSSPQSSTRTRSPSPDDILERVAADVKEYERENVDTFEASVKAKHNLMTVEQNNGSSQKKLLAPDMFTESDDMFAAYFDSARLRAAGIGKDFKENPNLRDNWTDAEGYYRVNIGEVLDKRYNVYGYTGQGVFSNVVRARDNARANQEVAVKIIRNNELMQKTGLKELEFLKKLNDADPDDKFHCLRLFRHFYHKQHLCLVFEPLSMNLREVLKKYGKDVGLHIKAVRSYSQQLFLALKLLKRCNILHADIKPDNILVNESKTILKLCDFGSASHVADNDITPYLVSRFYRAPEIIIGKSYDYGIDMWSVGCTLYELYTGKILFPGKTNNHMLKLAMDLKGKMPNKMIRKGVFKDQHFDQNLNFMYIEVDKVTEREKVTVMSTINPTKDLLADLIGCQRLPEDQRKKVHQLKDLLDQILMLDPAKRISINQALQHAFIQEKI
Sequence of CSNK1D (P48730 whole entry): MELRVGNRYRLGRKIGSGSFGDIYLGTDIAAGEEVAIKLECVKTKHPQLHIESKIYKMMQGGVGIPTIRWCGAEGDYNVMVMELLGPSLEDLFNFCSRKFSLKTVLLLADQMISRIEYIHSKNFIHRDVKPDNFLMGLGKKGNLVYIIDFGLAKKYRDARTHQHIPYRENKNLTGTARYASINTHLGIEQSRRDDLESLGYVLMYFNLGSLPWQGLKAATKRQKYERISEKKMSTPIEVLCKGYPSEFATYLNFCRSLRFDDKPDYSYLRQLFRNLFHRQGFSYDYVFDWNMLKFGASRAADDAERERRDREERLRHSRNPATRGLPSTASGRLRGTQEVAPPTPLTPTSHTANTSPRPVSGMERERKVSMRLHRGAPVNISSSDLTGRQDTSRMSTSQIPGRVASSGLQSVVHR
T3 sequence (Q9H093 whole entry): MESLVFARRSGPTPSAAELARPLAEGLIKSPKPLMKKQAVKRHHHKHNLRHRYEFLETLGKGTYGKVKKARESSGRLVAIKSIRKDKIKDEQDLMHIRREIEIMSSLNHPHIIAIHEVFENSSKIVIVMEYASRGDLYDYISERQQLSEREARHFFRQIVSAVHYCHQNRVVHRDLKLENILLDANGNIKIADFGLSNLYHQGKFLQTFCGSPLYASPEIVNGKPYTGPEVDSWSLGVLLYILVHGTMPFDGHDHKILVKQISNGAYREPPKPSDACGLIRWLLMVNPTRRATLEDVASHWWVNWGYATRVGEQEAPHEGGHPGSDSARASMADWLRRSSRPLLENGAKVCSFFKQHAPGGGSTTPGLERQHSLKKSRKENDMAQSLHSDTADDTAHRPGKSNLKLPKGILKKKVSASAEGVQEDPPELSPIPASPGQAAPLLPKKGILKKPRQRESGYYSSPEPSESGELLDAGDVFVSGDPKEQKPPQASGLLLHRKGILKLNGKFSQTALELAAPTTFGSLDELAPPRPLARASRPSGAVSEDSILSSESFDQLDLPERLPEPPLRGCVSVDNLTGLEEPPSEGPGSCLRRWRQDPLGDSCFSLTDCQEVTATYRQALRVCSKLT
Sequence of PIK3CA(E542K) (P42336 whole entry E542K): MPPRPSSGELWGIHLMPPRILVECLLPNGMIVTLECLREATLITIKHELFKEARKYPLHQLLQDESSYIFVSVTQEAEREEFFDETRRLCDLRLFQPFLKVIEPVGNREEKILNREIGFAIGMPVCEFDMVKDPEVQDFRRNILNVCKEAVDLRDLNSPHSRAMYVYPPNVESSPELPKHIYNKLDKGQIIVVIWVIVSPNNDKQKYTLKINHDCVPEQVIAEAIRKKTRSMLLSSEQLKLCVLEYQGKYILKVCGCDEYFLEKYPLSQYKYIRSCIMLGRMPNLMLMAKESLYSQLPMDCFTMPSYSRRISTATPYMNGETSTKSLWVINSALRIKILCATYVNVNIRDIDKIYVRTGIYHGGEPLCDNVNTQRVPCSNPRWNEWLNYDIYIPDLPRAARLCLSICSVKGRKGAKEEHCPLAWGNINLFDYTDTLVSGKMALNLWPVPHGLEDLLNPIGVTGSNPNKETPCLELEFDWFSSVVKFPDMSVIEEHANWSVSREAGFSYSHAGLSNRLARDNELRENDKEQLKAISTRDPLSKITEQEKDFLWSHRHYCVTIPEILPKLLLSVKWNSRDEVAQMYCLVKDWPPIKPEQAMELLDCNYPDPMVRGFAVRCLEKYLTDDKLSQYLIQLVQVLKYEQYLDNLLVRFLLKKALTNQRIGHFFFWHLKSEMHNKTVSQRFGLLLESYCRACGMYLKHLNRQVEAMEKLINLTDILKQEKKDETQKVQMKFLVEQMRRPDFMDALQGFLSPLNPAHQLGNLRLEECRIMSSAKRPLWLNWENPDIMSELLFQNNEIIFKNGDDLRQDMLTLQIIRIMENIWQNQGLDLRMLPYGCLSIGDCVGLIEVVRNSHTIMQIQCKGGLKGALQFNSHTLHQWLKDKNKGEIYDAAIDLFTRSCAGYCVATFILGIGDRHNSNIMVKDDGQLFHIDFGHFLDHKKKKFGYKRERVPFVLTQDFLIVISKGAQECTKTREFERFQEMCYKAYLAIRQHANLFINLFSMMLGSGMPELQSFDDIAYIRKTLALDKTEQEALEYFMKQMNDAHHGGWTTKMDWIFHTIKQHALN
Sequence of TAOK3 (Q9H2K8 whole entry): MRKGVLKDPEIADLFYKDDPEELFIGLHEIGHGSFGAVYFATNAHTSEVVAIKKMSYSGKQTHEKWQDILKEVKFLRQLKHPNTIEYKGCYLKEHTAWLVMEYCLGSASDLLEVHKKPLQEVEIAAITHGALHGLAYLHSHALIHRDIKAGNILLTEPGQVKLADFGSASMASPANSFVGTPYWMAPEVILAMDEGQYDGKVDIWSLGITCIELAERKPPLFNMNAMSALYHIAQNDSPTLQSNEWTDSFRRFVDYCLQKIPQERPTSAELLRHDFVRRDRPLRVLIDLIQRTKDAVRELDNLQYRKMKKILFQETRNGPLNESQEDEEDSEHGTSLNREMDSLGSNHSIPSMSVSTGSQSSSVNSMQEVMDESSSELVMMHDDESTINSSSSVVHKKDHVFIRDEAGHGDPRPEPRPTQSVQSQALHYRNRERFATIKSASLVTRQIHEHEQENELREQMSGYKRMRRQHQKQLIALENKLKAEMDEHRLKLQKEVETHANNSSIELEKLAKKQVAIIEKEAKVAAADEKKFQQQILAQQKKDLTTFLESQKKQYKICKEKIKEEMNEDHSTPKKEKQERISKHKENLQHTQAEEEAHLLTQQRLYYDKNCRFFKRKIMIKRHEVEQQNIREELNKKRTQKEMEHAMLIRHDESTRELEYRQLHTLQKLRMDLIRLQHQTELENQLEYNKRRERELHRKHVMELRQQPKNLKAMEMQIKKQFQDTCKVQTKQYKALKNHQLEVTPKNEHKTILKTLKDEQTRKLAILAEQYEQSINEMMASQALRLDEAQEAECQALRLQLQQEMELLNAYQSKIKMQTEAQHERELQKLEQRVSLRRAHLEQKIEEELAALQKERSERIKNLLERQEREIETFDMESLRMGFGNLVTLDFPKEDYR
Sequence of PIK3CA(I800L) (P42336 whole entry I800L): as the sequence (P42336 whole entry E542K) above, with K542E, I800L counted along it
Sequence of CDK7 (P50613 whole entry): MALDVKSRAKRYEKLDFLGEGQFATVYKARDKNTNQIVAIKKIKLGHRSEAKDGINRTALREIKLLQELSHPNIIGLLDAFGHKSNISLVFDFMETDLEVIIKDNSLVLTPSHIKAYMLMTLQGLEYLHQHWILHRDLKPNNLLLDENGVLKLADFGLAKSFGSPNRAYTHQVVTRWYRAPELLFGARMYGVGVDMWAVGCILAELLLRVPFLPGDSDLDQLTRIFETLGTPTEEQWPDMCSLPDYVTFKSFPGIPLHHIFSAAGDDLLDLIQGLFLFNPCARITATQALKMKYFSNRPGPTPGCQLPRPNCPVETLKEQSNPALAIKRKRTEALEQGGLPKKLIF
Sequence of DMPK (Q09013 whole entry): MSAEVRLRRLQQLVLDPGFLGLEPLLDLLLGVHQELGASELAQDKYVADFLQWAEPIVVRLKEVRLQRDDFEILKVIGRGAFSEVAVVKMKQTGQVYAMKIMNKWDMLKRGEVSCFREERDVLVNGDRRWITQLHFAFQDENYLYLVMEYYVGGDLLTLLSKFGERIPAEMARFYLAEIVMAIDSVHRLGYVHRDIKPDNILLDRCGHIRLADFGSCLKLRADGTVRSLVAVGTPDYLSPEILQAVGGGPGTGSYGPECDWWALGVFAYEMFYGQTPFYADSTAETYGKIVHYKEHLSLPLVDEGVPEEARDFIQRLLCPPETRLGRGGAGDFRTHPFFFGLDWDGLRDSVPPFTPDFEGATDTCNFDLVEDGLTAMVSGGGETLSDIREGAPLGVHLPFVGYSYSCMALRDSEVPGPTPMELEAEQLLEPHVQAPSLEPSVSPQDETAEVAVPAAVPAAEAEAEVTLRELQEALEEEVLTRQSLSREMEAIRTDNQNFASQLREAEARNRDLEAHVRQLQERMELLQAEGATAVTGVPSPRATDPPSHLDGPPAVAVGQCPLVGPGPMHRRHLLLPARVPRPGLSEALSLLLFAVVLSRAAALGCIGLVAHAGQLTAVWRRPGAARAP

Row | Structure (SMILES) | remaining binding at 10 µM [1] [%] | remaining binding at 10 µM [2] [%] | remaining binding at 10 µM [3] [%] | remaining binding at 10 µM [4] [%] | remaining binding at 10 µM [5] [%] | remaining binding at 10 µM [6] [%] | remaining binding at 10 µM [7] [%] | remaining binding at 10 µM [8] [%] | remaining binding at 10 µM [9] [%] | remaining binding at 10 µM [10] [%] | remaining binding at 10 µM [11] [%] | remaining binding at 10 µM [12] [%] | remaining binding at 10 µM [13] [%] | remaining binding at 10 µM [14] [%] | remaining binding at 10 µM [15] [%] | remaining binding at 10 µM [16] [%] | remaining binding at 10 µM [17] [%] | remaining binding at 10 µM [18] [%] | remaining binding at 10 µM [19] [%] | remaining binding at 10 µM [20] [%] | further results
1 | COc1ccc(-c2cnccc2-c2cnc(NC(=O)C(C)C)s2)c(C(F)(F)F)c1 [CRT0105446, N-{5-[3-(4-Methoxy-2-trifluoromethyl-phenyl)-pyridin-4-yl]-hiazol-2-yl}-isobutyramide] | 91 | 81 | 76 | 100 | 5.8 | 27 | 95 | 96 | 100 | 77 | 64 | 84 | 0.4 | 100 | 89 | 96 | 100 | 100 | 86 | 100 | remaining binding at 10 µM [21]: 100%; remaining binding at 10 µM [22]: 100%; remaining binding at 10 µM [23]: 81%
2 | Cc1ccc(-c2cnccc2-c2cnc(Nc3ccc(O)cc3)s2)c(Cl)c1 [CRT0105950, 4-{5-[3-(2-Chloro-4-methyl-phenyl)-pyridin-4-yl]-thiazol-2-ylamino}-phenol] | 23 | 74 | 21 | 100 | 32 | 6.1 | 80 | 0.15 | 100 | 84 | 83 | 31 | 12 | 100 | 43 | 28 | 100 | 100 | 13 | 100 | remaining binding at 10 µM [21]: 100%; remaining binding at 10 µM [22]: 11%; remaining binding at 10 µM [23]: 79%
